We go through 3 compounds from patent US10966426B2, “Herbicidal compositions comprising phenylpyrimidines” (BASF SE, priority 2016, dated 2021).

Each structure is given as a SMILES string.

Format in all cases: in vivo
In one experiment the test system is Poa annua. Nature of the experiment: greenhouse post-emergence treatment, POAAN. Conditions: solo, WG 75%, POAAN, 12.5 gai/ha, 20 DAT. The method in brief: (§1)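 Plants were grown in loamy sand with about 3.0% humus to 3–15 cm height, then sprayed with actives formulated as 10% by weight emulsion concentrates in water. Held at 10-25° C. or 20-35° C. by species for 2 to 4 weeks; damage scored 0 (none) to 100 (complete destruction).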

The test system of another experiment is Stellaria media. The experiment is described as follows: greenhouse pre-emergence treatment, STEME. Conditions: 21 DAT. An excerpt:
(§2) The culture containers used were plastic pots containing loamy sand with approximately 3.0% of humus as substrate. The seeds of the test plants were sown separately for each species.
(§3) For the pre-emergence treatment, the active compounds, suspended or emulsified in water, were applied directly after sowing by means of finely distributing nozzles. The containers were irrigated gently to promote germination and growth and subsequently covered with transparent plastic hoods until the plants had rooted. This cover caused uniform germination of the test plants unless this was adversely affected by the active compounds.
(§4) Depending on the species, the plants were kept at 10-25° C. and 20-35° C., respectively.
(§5) The test period extended over 2 to 4 weeks. During this time, the plants were tended and their response to the individual treatments was evaluated.
(§6) Evaluation was carried out using a scale from 0 to 100. 100 means no emergence of the plants, or complete destruction of at least the above-ground parts, and 0 means no damage or normal course of growth. A good herbicidal activity is given at values of at least 70, and very good herbicidal activity is given at values of at least 85.
(§7) The respective stated components A and B, and if appropriate, C were formulated as a 10% by weight strength emulsion concentrate and, with addition of the amount of solvent system, introduced into the spray liquor used for applying the active compound. In the examples, the solvent used was water.
(§8) In the examples below, using the method of S. R. Colby (1967) “Calculating synergistic and antagonistic responses of herbicide combinations”, Weeds 15, p. 22ff., the value E, which is expected if the activity of the individual active compounds is only additive, was calculated. E=X+Y−(X·Y/100) where X=effect in percent using herbicide A at an application rate a; • Y=effect in percent using herbicide B at application rate b; • E=expected effect (in %) of herbicide A+herbicide B at application rates a+b.

For experiment [1], the system named is Digitaria sanguinalis. The experiment is described as follows: greenhouse post-emergence treatment, DIGSA. To be noted: solo, WG 75%, DIGSA, 100 gai/ha, 20 DAT. The method in brief:
(§9)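 Visual damage score 0–100 (0 = normal growth; 100 = no emergence/above-ground parts destroyed), read 2–4 wk post-treatment. Loamy sand, ~3.0% humus; seedlings grown in place or transplanted days before spraying; water as solvent; 10-25° C. or 20-35° C. per species. Combination expectations by Colby: E=X+Y−(X·Y/100).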

The subject of a further experiment is Polygonum convolvulus. The experiment is described as follows: greenhouse pre-emergence treatment, POLCO. To be noted: POLCO.
From the text: as §2, §3, §4, §5, §6, §7, §8

Experiment [2] relates to Digitaria sanguinalis. Nature of the experiment: greenhouse pre-emergence treatment, DIGSA. Conditions: 21 DAT, DIGSA.
From the text: as §2, §3, §4, §5, §6, §7, §8

Experiment [3] concerns Alopecurus myosuroides. Nature of the experiment: greenhouse post-emergence treatment, ALOMY. Conditions: solo, WG 75%, ALOMY, 50 gai/ha, 20 DAT. The method in brief:
as §9

The test system of experiment [4] is Bromus sterilis. The experiment is described as follows: greenhouse pre-emergence treatment, BROST. Conditions: solo, WG 75%, BROST, 50 gai/ha, 21 DAT.
From the text: as §2, §3, §4, §5, §6, §7, §8

A further experiment concerns Matricaria chamomilla. The experiment is described as follows: greenhouse post-emergence treatment, MATCH. Conditions: solo, WG 75%, MATCH, 20 DAT. In a few lines:
(§10)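 Visual herbicidal effect (0–100) recorded over a 2 to 4 week test period after foliar treatment at plant heights of 3 to 15 cm. Expected combination effects derived by the Colby formula from single-component effects X and Y.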

The subject of another experiment is Helianthus annuus. Nature of the experiment: greenhouse pre-emergence treatment, HELAN. Conditions: HELAN; for % activity: 21 DAT.
From the text: as §2, §3, §4, §5, §6, §7, §8

The test system of experiment [5] is Setaria viridis. The experiment is described as follows: greenhouse pre-emergence treatment, SETVI. Conditions: SETVI.
From the text: as §2, §3, §4, §5, §6, §7, §8

The test system of the next experiment is Ambrosia elatior. Nature of the experiment: greenhouse pre-emergence treatment, AMBEL. To be noted: AMBEL; for % activity: 21 DAT.
From the text: as §2, §3, §4, §5, §6, §7, §8

Experiment [6] deals with Bromus sterilis. Nature of the experiment: greenhouse post-emergence treatment, BROST. To be noted: solo, WG 75%, BROST, 20 DAT. The method in brief: as §9
The subject of experiment [7] is Galium aparine. The experiment is described as follows: greenhouse pre-emergence treatment, GALAP. To be noted: GALAP; for % activity: solo, WG 75%, 21 DAT.
From the text: as §2, §3, §4, §5, §6, §7, §8

Experiment [8] has as its system Brachiaria decumbens. The experiment is described as follows: greenhouse post-emergence treatment, BRADC. Conditions: 20 DAT, BRADC. In a few lines: as §1
In a further experiment the test system is Papaver rhoeas. Nature of the experiment: greenhouse post-emergence treatment, PAPRH. Conditions: solo, WG 75%, PAPRH, 20 DAT. The method in brief: as §10
Experiment [9] has as its system Setaria viridis. Nature of the experiment: greenhouse post-emergence treatment, SETVI. To be noted: 20 DAT, SETVI. The method in brief:
as §9

For experiment [10], the system named is Alopecurus myosuroides. Nature of the experiment: greenhouse pre-emergence treatment, ALOMY. To be noted: Table X13, 20 DAT, solo isoproturon (SC 500 g/l) 125 gai/ha.
From the text: as §2, §3, §4, §5, §6, §7, §8

For a further experiment, the system named is Echinocloa crus-galli. Nature of the experiment: greenhouse post-emergence treatment, ECHCG. To be noted: Table X12, 20 DAT, ECHCG, solo isoproturon (SC 500 g/l) 125 gai/ha. As to the method: as §2
For the post-emergence treatment, the test plants were grown to a plant height of from 3 to 15 cm, depending on the plant habit, and only then treated with the active compounds which had been suspended or emulsified in water. To this end, the test plants were either sown directly, and grown in the same containers, or they were first grown separately as seedlings and transplanted into the test containers a few days prior to treatment.
as §4, §5, §6, §7, §8

Experiment [11] concerns Galium aparine. The experiment is described as follows: greenhouse post-emergence treatment, GALAP. Conditions: Galium aparine, 480 h, Table X12, 20 DAT, GALAP, solo isoproturon (SC 500 g/l) 500 gai/ha. The method in brief: as §10
For another experiment, the system named is Apera spica-venti. Nature of the experiment: greenhouse pre-emergence treatment, APESV. To be noted: Apera spica-venti, 480 h, 20 DAT, flumioxazin WG 51% solo 3.75 gai/ha.
From the text: as §2, §3, §4, §5, §6, §7, §8

Experiment [12] deals with Brachiaria decumbens. The experiment is described as follows: greenhouse pre-emergence treatment, BRADC. To be noted: Urochloa decumbens, 480 h, 20 DAT, BRADC, flumioxazin WG 51% solo 15 gai/ha.
From the text: as §2, §3, §4, §5, §6, §7, §8

A further experiment deals with Lolium multiflorum. Nature of the experiment: greenhouse pre-emergence treatment, LOLMU. To be noted: Lolium multiflorum, 480 h, 20 DAT, LOLMU, flumioxazin WG 51% solo 30 gai/ha.
From the text: as §2, §3, §4, §5, §6, §7, §8

Where [13] appears, read: solo, WG 75%, 50 gai/ha, 21 DAT.

For `O=C(Nc1ccc(F)cc1)c1cccc(Oc2cccc(C(F)(F)F)c2)n1` [picolinafen], the “% activity” value in the experiment on Poa annua is recorded as 40%; with Stellaria media (picolinafen solo 25 gai/ha), 20%; in the experiment with Stellaria media (picolinafen solo 50 gai/ha) it was 50%; with Stellaria media (picolinafen solo 100 gai/ha), 65%; in the experiment with Digitaria sanguinalis [1], 75%; with Polygonum convolvulus (setting [13]) it was 20%. Further, the “% activity” value is recorded as 0% in the experiment on Digitaria sanguinalis [2] (picolinafen solo 12.5 gai/ha); 30% in the experiment with Digitaria sanguinalis [2] (solo, WG 75%, 25 gai/ha); 60% with Digitaria sanguinalis [2] (solo, WG 75%, 50 gai/ha); 10% with Alopecurus myosuroides [3]; 20% with Bromus sterilis [4]; 0% with Matricaria chamomilla (12.5 gai/ha). Moreover, the “% activity” value in the experiment on Matricaria chamomilla (25 gai/ha) was found to be 20%; in the experiment on Matricaria chamomilla (50 gai/ha), 20%; in the experiment on Helianthus annuus (picolinafen solo 12.5 gai/ha) it was 10%; in the experiment with Helianthus annuus (picolinafen solo 50 gai/ha) it was 15%; in the experiment on Helianthus annuus (solo, WG 75%, 12.5 gai/ha), 10%; with Helianthus annuus (solo, WG 75%, 25 gai/ha), 20%. Besides, the “% activity” value in the experiment on Helianthus annuus (solo, WG 75%, 50 gai/ha) is recorded as 15%; with Setaria viridis [5] (picolinafen solo 25 gai/ha, 21 DAT), 70%; with Setaria viridis [5] (picolinafen solo 50 gai/ha, 21 DAT) it was 80%; in the experiment with Setaria viridis [5] (picolinafen solo 100 gai/ha, 21 DAT), 85%; with Setaria viridis [5] (picolinafen solo 250 gai/ha, 21 DAT), 70%; in the experiment with Setaria viridis [5] (solo, WG 75%, 12.5 gai/ha, 21 DAT) it was 45%. Besides, the “% activity” value was determined as 80% in the experiment with Setaria viridis [5] (setting [13]); 0% with Ambrosia elatior (picolinafen solo 50 gai/ha); 0% with Ambrosia elatior (solo, WG 75%, 12.5 gai/ha); 0% in the experiment on Ambrosia elatior (solo, WG 75%, 25 gai/ha); 0% with Ambrosia elatior (solo, WG 75%, 50 gai/ha); 0% in the experiment on Bromus sterilis [6] (12.5 gai/ha). Further, the “% activity” value in the experiment with Bromus sterilis [6] (25 gai/ha) amounted to 0%; in the experiment with Bromus sterilis [6] (50 gai/ha), 10%; with Bromus sterilis [6] (100 gai/ha), 20%; with Galium aparine [7] (12.5 gai/ha), 0%; in the experiment with Galium aparine [7] (25 gai/ha), 0%; with Brachiaria decumbens [8] (picolinafen WG 75% solo 25 gai/ha) it was 35%. Further, the “% activity” value in the experiment on Brachiaria decumbens [8] (picolinafen WG 75% solo 50 gai/ha) stood at 50%; with Brachiaria decumbens [8] (solo, WG 75%, 25 gai/ha), 35%; in the experiment on Brachiaria decumbens [8] (solo, WG 75%, 50 gai/ha), 50%; with Papaver rhoeas (12.5 gai/ha), 35%; in the experiment on Papaver rhoeas (25 gai/ha) it was 40%; with Papaver rhoeas (50 gai/ha) it was 55%. Also, the “% activity” value in the experiment with Papaver rhoeas (100 gai/ha) is recorded as 80%; with Setaria viridis [9] (picolinafen WG 75% solo 12.5 gai/ha), 30%; with Setaria viridis [9] (solo, WG 75%, 12.5 gai/ha), 30%; in the experiment with Setaria viridis [9] (solo, WG 75%, 50 gai/ha), 80%.
As usually defined, the pest or weed control is how far the test organism was held down. For `CC(C)c1ccc(NC(=O)N(C)C)cc1` [isoproturon], the “% activity” value was 0% in the experiment on Alopecurus myosuroides [10]; 40% in the experiment with Echinocloa crus-galli; 0% in the experiment on Setaria viridis [5] (Table X13, 20 DAT, solo isoproturon (SC 500 g/l) 125 gai/ha); 75% with Setaria viridis [5] (Table X13, 20 DAT, solo isoproturon (SC 500 g/l) 500 gai/ha). Also, the pest or weed control at 500000 µg/mL, 500 g/ha in the experiment on Galium aparine [11] was 30%.
The term inhibition denotes how much of the control response was suppressed. Turning to `C#CCN1C(=O)COc2cc(F)c(N3C(=O)C4=C(CCCC4)C3=O)cc21` [flumioxazin], the inhibition at 3.75 g/ha in the experiment with Apera spica-venti was determined as 25%. Moreover, the inhibition at […] in the experiment on Polygonum convolvulus (Fallopia convolvulus, 480 h, 20 DAT, flumioxazin WG 51% solo 7.5 gai/ha) was determined as 65%. The inhibition at 30 g/ha was 50% in the experiment with Helianthus annuus (Helianthus annuus, 480 h, 20 DAT, flumioxazin WG 51% solo 30 gai/ha) and 65% in the experiment with Lolium multiflorum. In the experiment on Ambrosia elatior (Ambrosia artemisiifolia, 480 h, 20 DAT, flumioxazin WG 51% solo 3.75 gai/ha), the percent weed control (herbicidal activity, 0-100 scale) at 3.75 g/ha turned out to be 0%. For the same compound, the percent weed control (herbicidal activity, 0-100 scale) at […] with Ambrosia elatior (Ambrosia artemisiifolia, 480 h, 20 DAT, flumioxazin WG 51% solo 7.5 gai/ha) is 0%. The % herbicidal activity (weed control, 0-100 scale) at 15 g/ha in the experiment on Brachiaria decumbens [12] turned out to be 40%. Moreover, the % herbicidal activity (weed control, 0-100 scale) at […] in the experiment with Galium aparine [7] (Galium aparine, 480 h, 20 DAT, flumioxazin WG 51% solo 7.5 gai/ha) came to 0%. Also, in the experiment on Galium aparine [7] (Galium aparine, 480 h, 20 DAT, flumioxazin WG 51% solo 30 gai/ha), the % herbicidal activity (weed control, 0-100 scale) at 30 g/ha came to 65%.
